Residues, ends and D or L forms follow the SMILES beside them. *: point of attachment. Cbz = O=C(OCc1ccccc1)*
Assays:
MKN28 cells = experiment: Zebrafish xenotransplantation migration assay, MKN28; format: in vivo; settings: MKN28-injected embryos, immersion in 1 μM at 1 dpi, read at 3 dpi
Protocol: The Tg (fli1: EGFP) zebrafish transgenic strain was purchased from ZIRC (Oregon, USA). […] At two-day post-fertilization, the embryos were dechorionated and subsequently anesthetized with tricaine (0.04 mg/ml). MKN28 or MKN45 cells were labeled with either CFSE or CM-DiI. Two hundred labeled cells (4.6 nl) were injected into the yolk of two-day old embryo using a Nanoject II Auto-Nanoliter Injector (Drummond Science, Broomall, Pa., USA). Later, individual recipients were examined for fluorescent cells 1 and 3 day-post injection by a fluorescence microscopy (Leica).
Next, to evaluate migration behavior using a zebrafish xenotransplantation assay, an efficient in vivo system that utilizes a small number of cells (100 to 200 cells) to accurately monitor cell migratory activity within a couple of days. Cells (pLKO vs. shPHF8) were labeled with carboxyfluorescein succinimidyl ester (CFSE), an amine-reactive green fluorescent dye, and injected into zebrafish embryos. Migration activity was monitored at 1-day postinjection (1 dpi) and 3 dpi by fluorescence microscopy.

MKN45 cells = experiment: Zebrafish xenotransplantation migration assay, MKN45; format: in vivo; settings: MKN45-injected embryos, immersion in 1 μM at 1 dpi, read at 3 dpi
Protocol: The Tg (fli1: EGFP) zebrafish transgenic strain was purchased from ZIRC (Oregon, USA). The zebrafish embryos, larvae, and adult fish were maintained in the Taiwan Zebrafish Core Facility @ NHRI. At two-day post-fertilization, the embryos were dechorionated and subsequently anesthetized with tricaine (0.04 mg/ml). MKN28 or MKN45 cells were labeled with either CFSE or CM-DiI. Two hundred labeled cells (4.6 nl) were injected into the yolk of two-day old embryo using a Nanoject II Auto-Nanoliter Injector (Drummond Science, Broomall, Pa., USA). Later, individual recipients were examined for fluorescent cells 1 and 3 day-post injection by a fluorescence microscopy (Leica). […]
Next, to evaluate migration behavior using a zebrafish xenotransplantation assay, an efficient in vivo system that utilizes a small number of cells (100 to 200 cells) to accurately monitor cell migratory activity within a couple of days. […] Migration activity was monitored at 1-day postinjection (1 dpi) and 3 dpi by fluorescence microscopy.
Next, to corroborate this finding using a zebrafish xeno-transplantation model. Cells labeled with Vybrant CM-DiI (CM-Dil) (red fluorescence dye) were injected into the embryos of Tg (fli1: EGFP) (fish with green fluorescence in blood vessels), followed by immersion in solutions containing 1 μM m Midostaurin or Bosutinib (a sublethal dose) at 1 dpi. […]

PTEN [1] = experiment: PTEN protein level by Western blotting in MKN28; format: cell-based, human; settings: MG132-treated pLKO MKN28 cells
Source text: FIG. 15. Pharmacological inhibition of PHF8-PKCα-Src-PTEN blocks GC progression in vitro and in vivo. […] Data from FIGS. 15B and 15D are presented as the average of three replicates ±SD **P<0.01 (two-tailed Student's t test). Zebrafish xeno-transplantation assays using Mido or Bosu. […] Cyan, blood vessel. […] Total number of embryos used in vehicle, Mido, and Bosu is shown in the bracket. Data were obtained from three independent studies. **P<0.01 (two-tailed Student's t test).
(§1) For immunoblotting assay, PBS-washed cells collected by scraping were directly lysed in RIPA buffer supplemented with protease inhibitor (Santa Cruz) and PhosSTOP (Sigma). Appropriate amounts of protein were separated on SDS-PAGE and then electrotransferred to PVDF membrane (PALL, Protein Washington, N.Y., USA). After the transfer, each membrane was incubated with appropriate primary antibody overnight at 4° C. and then probed with secondary antibodies conjugated with fluorescence. Odyssey Infrared Imaging System (LI-COR Biosciences, Lincoln, Nebr., USA) was utilized to detect the level of fluorescence. For immunoprecipitation assay, cell pellets were lysed in lysis buffer [50 mM Tris-HCl (pH 7.4), 150 mM NaCl, 0.5% NP40)] containing protease inhibitor (Santa Cruz). […]

PTEN [2] = experiment: PTEN protein level by Western blotting in MKN45; format: cell-based, human; settings: MG132-treated pLKO MKN45 cells
Protocol: FIG. 16. Pharmacological inhibition of PHF8-PKCα-Src-PTEN blocks GC progression in vitro and in vivo. […] Data form FIGS. 16B and 16D are presented as the average of 3 replicates ±SD. *p<0.05, **p<0.01 (two-tailed Student's t test). Zebrafish xenotransplantation assays using Mido or Bosu. Fluorescence microscopic analysis was conducted at 1 dpi and 3 dpi. […] Cyan, blood vessel. Scale bar, 100 μm. […] Total number of embryos used in vehicle, Mido, Bosu is shown in the bracket. Data were obtained from 3 independent studies. *p<0.05 (two-tailed Student's t test).
as §1

| SMILES | embryos with migration behavior (dissemination and invasion) (MKN28 cells) [%] | embryos with migration behavior (metastatic activity) (MKN45 cells) [%] | PTEN protein level with MG132 treatment (PTEN [1]) | PTEN protein level with MG132 treatment (PTEN [2]) |
| --- | --- | --- | --- | --- |
| COc1cc(Nc2c(C#N)cnc3cc(OCCCN4CCN(C)CC4)c(OC)cc23)c(Cl)cc1Cl [Bosutinib] | 11.95 | 18.08 | – | – |
| CC(C)C[C@@H](C=O)NC(=O)[C@H](CC(C)C)NC(=O)[C@H](CC(C)C)NC(=O)OCc1ccccc1 [MG132] (Cbz-Leu-Leu-Leu-aldehyde) | – | – | rescued | rescued |
| CO[C@@H]1[C@H](N(C)C(=O)c2ccccc2)C[C@H]2O[C@]1(C)n1c3ccccc3c3c4c(c5c6ccccc6n2c5c31)C(=O)NC4 [Midostaurin] | 11 | 13.88 | – | – |
